Laboratory results: ChEMBL document CHEMBL1201862, “PubChem BioAssay data set” (2004)
Activity calls are given as the source filed them.

Key:
[1] = target: T1, Sentrin-specific protease 8 (Homo sapiens, UniProt Q96LD8); assay type: functional;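 also: luminescence read-out of SENP8 inhibition, dose-response confirmation following an ultra-high-throughput screen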
T1 sequence (Q96LD8 whole entry): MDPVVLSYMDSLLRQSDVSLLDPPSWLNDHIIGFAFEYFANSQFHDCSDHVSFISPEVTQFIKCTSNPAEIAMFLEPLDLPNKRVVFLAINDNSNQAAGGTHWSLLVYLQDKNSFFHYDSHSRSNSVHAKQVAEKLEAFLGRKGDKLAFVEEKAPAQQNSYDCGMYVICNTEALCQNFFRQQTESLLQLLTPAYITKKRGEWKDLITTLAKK

Caspase-3 = target: T2, Caspase-3 (Homo sapiens, UniProt P42574); assay type: functional;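 also: Dose-response selectivity test against caspase-3 for candidate inhibitors of sentrin-specific proteases (SENPs)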
T2 sequence (P42574 whole entry): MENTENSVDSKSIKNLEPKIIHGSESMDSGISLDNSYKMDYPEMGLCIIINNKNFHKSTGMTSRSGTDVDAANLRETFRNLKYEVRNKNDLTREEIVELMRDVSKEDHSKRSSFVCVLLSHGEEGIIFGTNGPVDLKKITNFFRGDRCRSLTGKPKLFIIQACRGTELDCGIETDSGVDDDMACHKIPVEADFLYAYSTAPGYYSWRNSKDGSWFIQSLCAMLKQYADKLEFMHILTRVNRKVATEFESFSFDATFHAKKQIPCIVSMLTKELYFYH

[2] = target: T3, Sentrin-specific protease 7 (Homo sapiens, UniProt Q9BQF6); assay type: functional;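 also: Luminescence-based dose-response confirmation of ultra-high-throughput screening hits, measuring inhibition of SENP7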
T3 sequence (Q9BQF6 whole entry): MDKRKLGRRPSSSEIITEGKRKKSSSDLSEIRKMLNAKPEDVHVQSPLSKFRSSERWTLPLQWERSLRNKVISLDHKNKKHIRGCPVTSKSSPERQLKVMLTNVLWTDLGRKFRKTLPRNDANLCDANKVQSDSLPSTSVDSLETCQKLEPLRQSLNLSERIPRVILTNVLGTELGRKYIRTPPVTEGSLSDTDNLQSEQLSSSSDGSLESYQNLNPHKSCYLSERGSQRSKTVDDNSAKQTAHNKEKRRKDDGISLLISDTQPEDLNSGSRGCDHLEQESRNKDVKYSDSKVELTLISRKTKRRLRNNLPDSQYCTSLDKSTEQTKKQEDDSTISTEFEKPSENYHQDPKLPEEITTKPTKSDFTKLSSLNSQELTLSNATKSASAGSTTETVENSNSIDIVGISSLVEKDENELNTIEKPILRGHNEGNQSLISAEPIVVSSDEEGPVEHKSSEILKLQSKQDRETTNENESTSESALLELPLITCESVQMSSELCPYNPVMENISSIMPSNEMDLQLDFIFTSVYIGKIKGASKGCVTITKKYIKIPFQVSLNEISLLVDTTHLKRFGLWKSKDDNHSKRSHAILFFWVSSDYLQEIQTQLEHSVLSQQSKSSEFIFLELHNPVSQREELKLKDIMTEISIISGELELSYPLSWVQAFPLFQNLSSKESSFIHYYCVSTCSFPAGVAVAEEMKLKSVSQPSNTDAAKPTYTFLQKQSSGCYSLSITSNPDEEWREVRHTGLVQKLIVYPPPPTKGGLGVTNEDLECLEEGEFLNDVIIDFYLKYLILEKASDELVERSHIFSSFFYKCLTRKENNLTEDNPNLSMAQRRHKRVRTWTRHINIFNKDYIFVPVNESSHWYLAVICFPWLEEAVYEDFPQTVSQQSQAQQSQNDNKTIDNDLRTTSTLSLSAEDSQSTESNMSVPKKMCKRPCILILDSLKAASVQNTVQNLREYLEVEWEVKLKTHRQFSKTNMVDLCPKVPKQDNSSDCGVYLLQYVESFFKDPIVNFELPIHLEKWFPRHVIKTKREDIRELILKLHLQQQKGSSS

[3] = target: T4, Sentrin-specific protease 6 (Homo sapiens, UniProt Q9GZR1); assay type: functional;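 also: Luminescence-based dose-response confirmatory assay of SENP6 inhibition, following up an ultra-high-throughput screen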
T4 sequence (Q9GZR1 whole entry): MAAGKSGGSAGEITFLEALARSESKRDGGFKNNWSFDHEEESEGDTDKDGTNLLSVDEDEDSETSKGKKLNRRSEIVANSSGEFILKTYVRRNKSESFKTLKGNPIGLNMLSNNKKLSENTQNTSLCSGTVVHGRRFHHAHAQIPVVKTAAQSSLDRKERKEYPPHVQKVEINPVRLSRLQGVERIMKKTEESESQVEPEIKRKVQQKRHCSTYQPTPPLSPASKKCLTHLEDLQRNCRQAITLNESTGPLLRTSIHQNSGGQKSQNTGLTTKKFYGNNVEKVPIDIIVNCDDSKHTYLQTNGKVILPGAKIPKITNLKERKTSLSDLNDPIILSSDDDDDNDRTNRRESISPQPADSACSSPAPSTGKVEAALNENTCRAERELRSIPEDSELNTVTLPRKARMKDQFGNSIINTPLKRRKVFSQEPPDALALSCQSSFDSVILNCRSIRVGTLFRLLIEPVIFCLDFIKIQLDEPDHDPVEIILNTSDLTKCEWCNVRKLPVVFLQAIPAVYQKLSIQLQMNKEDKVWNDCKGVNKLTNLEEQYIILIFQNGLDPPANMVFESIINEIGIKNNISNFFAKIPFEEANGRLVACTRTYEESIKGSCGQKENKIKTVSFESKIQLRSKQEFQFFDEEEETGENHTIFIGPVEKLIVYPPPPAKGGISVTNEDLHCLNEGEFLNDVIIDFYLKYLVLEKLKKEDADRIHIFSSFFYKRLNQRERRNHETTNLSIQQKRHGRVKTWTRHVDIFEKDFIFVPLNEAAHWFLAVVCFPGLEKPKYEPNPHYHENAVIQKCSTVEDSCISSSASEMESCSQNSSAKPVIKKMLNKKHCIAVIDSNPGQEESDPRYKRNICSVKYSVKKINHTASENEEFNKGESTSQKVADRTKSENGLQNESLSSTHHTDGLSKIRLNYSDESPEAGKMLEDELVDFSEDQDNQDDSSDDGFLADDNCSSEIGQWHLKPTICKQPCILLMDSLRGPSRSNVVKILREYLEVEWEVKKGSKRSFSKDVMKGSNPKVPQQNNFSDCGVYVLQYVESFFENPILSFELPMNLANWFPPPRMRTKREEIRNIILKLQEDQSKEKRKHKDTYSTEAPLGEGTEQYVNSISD

[4] = control 3'UTR Renilla luciferase suppression, dose response, counter-screen for Shn3 inhibitor project, cell-based, Clone20-Shn3RL, cherry-picked (AID 624133); assay type: functional
[5] = HepG2 cell cytotoxicity, dose response, cytotoxicity control for Shn3 inhibitor project, CellTiter-Glo, cherry-picked (AID 624134); assay type: functional, cell-based
HEK293 = assay: inhibitors of LMP1-driven NF-kB reporter, dose response, cell-based, HEK293, luciferase, cherry-pick (AID 588343); assay type: functional; settings: Homo sapiens
[6] = Shn3 3'UTR reporter inhibitors, dose response, cell-based, Clone20 osteoblasts, firefly luciferase, cherry-picked (AID 624132); assay type: functional;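 also: firefly luciferase luminescence from reporter carrying the Shn3 3'UTR in osteoblasts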
[7] = Counterscreen for inhibitors of Trypanosoma brucei methionyl tRNA synthetase (MetRS): Luminescence-based cell-based high throughput dose response assay to identify compounds that are cytotoxic to Jurkat human T lymphocyte cells.; assay type: functional
[8] = target: T5, Methionyl-tRNA synthetase, putative (Trypanosoma brucei brucei, UniProt Q38C91); assay type: functional, Trypanosoma brucei brucei strain 927/4 GUTat10.1;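 also: Read-out by fluorescence polarization, run as a confirmatory high-throughput counterscreen; potency of MetRS inhibitors measured by reduced AMP formation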
T5 sequence (Q38C91 whole entry): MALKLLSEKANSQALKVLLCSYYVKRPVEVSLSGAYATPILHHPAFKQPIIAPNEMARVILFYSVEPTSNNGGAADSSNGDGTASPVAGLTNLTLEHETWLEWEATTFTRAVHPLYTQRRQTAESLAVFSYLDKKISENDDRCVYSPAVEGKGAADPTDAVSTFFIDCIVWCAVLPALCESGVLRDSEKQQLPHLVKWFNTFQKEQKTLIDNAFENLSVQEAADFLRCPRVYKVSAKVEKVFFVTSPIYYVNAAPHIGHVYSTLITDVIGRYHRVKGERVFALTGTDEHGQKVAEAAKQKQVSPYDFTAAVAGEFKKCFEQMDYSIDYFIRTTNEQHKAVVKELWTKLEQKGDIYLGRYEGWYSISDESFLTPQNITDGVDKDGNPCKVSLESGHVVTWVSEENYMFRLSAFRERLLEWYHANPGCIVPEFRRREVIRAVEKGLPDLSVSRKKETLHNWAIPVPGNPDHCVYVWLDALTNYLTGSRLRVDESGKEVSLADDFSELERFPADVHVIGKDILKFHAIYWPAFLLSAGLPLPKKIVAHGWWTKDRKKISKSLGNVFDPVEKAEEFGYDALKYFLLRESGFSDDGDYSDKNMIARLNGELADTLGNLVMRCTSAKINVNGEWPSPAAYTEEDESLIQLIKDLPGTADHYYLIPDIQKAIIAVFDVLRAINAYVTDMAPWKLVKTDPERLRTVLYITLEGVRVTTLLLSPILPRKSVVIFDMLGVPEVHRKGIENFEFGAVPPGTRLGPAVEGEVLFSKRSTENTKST

[9] = target: T6, Calpain-2 catalytic subunit (Sus scrofa, UniProt P43367); assay: pig calpain II inhibitor potency, dose response, biochemical, fluorogenic peptide substrate (AID 1420); assay type: functional
T6 sequence (P43367 whole entry): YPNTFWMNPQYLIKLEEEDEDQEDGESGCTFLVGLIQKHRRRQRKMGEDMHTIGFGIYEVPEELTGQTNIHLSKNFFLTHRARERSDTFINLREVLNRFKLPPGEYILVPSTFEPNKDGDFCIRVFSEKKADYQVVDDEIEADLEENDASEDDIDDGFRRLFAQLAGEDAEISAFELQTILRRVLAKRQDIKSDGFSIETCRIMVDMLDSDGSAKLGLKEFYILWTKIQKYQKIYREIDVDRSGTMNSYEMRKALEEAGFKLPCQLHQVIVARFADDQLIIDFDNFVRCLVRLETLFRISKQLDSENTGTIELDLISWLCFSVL

Genome polyprotein = Genome polyprotein (dengue virus type 2, UniProt P29990); assay: Dengue-2 NS5 methyltransferase inhibitors, primary screen, biochemical, confirmation dose response (AID 588689); assay type: functional
Streptococcus = assay: Group A Streptococcus viability loss, dose response, counter-screen for streptokinase expression inhibitor project, luminescence, BacTiterGlo (AID 1915); assay type: functional, organism-based;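 also: potency for reduction of bacterial viability or growth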
[10] = tested on: Streptococcus sp. 'group A'; assay: growth inhibition of control SK(-) GAS strain, dose response, counter-screen for streptokinase expression inhibitor project, luminescence, kanamycin, BacTiterGlo, confirmation (AID 1900); assay type: functional, organism-based
[11] = target: T7, Heat shock factor protein 1 (Mus musculus, UniProt P38532); assay: inhibition of MG132-induced HSE-luciferase signal, confirmation, cell-based, NIH3T3, luminescence, dose retest (AID 2382); assay type: functional;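 also: NIH3T3 fibroblasts with HSF1-driven luciferase reporter stressed by proteasome inhibitor MG132; luminescence from HSF1-driven luciferase expression after 8 hours of MG132 stress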
T7 sequence (P38532 whole entry): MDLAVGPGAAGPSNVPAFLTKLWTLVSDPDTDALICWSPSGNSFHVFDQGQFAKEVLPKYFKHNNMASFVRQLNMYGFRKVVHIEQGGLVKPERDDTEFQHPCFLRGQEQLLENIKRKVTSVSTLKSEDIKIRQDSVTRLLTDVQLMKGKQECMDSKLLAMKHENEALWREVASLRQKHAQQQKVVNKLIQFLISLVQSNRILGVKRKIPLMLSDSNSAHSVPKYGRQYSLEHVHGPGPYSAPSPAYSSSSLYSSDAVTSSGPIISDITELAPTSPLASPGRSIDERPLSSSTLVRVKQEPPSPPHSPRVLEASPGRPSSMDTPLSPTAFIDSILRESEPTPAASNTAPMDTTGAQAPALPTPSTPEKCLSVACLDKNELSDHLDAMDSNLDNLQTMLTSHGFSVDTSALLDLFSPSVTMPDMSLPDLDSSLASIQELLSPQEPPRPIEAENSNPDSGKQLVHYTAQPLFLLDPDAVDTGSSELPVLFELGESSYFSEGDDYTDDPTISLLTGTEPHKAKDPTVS

Streptokinase A = target: T8, Streptokinase A (Streptococcus pyogenes serotype M1, UniProt P10520); assay: S. pyogenes streptokinase expression inhibitors, potency, dose response, plasminogen activation absorbance, OD405 (AID 1914); assay type: functional, Streptococcus pyogenes M1 GAS;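 also: secreted streptokinase activity via plasminogen activation per viability signal from cell pellet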
T8 sequence (P10520 whole entry): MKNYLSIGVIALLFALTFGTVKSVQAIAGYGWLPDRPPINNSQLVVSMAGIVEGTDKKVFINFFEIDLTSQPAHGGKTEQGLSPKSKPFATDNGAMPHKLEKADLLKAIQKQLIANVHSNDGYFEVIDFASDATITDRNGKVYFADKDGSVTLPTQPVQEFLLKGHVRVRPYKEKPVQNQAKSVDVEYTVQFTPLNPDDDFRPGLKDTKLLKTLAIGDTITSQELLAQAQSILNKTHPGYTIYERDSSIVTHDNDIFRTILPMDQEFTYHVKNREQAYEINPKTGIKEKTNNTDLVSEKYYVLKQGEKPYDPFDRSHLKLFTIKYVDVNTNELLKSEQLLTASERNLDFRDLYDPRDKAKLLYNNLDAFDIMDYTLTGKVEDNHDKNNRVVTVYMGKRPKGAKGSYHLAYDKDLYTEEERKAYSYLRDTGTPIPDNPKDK

Chain of Genome polyprotein (P29990 2492-3391 limits assumed): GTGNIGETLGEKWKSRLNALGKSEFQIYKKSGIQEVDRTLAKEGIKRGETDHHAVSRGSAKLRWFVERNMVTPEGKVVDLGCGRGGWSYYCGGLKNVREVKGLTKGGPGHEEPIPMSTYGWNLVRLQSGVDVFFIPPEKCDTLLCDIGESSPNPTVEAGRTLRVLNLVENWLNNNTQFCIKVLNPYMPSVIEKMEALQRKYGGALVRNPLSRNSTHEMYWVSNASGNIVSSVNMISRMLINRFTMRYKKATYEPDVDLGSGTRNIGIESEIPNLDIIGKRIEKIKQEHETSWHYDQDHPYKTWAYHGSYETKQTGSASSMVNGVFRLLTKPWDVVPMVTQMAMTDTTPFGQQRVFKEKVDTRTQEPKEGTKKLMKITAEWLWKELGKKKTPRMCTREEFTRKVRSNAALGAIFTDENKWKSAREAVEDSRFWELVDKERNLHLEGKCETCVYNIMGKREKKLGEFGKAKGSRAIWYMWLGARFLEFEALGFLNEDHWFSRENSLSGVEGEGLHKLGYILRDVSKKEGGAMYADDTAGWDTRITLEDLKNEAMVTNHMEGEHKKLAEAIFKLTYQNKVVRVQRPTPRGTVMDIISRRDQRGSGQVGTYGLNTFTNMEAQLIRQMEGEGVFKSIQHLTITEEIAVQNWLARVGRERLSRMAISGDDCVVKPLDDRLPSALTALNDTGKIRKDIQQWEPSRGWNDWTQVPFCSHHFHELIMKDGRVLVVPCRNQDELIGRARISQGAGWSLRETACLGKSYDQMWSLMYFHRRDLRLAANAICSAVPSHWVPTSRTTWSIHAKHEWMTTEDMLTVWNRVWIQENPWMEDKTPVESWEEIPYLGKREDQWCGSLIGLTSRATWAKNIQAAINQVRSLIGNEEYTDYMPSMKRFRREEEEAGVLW

Row | SMILES | IC50 [1] | IC50 (Caspase-3) | IC50 [2] | IC50 [3] | AC50 (HEK293) | also measured
1 | CCOC(=O)c1c(C)[nH]c(N=Nc2cccc(C)c2)c1C | 14.7 µM (active) | 40.3 µM (active) | 5.37 µM (active) | 18 µM (active) |  | 
2 | Fc1ccc2[nH]c3c(N4CCN(c5ccccc5)CC4)ncnc3c2c1 |  |  |  |  | 6.19 µM (active) | AC50 [4]: 5.5 µM (active); AC50 [5]: 31.5 µM (active); AC50 [6]: 3.78 µM (active)
3 | O=C(N/N=C/c1cccc(O)c1)c1ccc2c(c1)OCCO2 |  |  |  |  | 0.889 µM (active) | 
4 | O=C(Nc1cccnc1)c1ccc(COc2cc(Cl)ccc2Cl)o1 |  |  |  |  |  | IC50 [7]: 12.8 µM (inactive); IC50 [8]: 23.5 µM (inactive)
5 | CCCc1ccc(OC(=O)c2ccc(O)cc2Cl)cc1 | 9.08 µM (active) | 38.4 µM (active) | 8.1 µM (active) | 8.84 µM (active) |  | IC50 [9]: 3.76 µM (not active)
6 | Nc1ccccc1C#Cc1ccc([N+](=O)[O-])cc1 | 80 µM (active) | 23.2 µM (active) | 6.02 µM (active) | 31 µM (active) |  | 
7 | O=C(O)CN1C(=O)/C(=C\c2ccccc2OCc2ccc(Cl)cc2Cl)SC1=S |  |  |  |  | 12.7 µM (active) | IC50 (Genome polyprotein): 87.6 µM (active); EC50 (Streptococcus): 32.4 µM (active); EC50 [10]: 4.28 µM (active); EC50 [11]: 2.58 µM (active); EC50 (Streptokinase A): 17.9 µM (inconclusive)
